≈ marks a conversion by molar mass, not a printed value. Bounds are passed on as bounds.

Format in all cases: in vivo
In one assay the test system is Culex pipiens L. Kind of assay: Culex test (mature larvae, loss of 50% of test animals). Particulars: concentration producing loss of 50% of test animals, mixtures of isomers, read-out: IC-50 eclos. As for the experimental part: (§1) The biological tests are examplified by tests on Tenebrio molitor L, Galleria mellonella L. and Culex pipiens L.
The compounds are tested on mature larvae. The concentration (IC-50 eclos.) is given in ppm.

For another assay, the system named is Tenebrio molitor L. Put plainly: Tenebrio test (topical application to pupae, inhibition of adult characters). Particulars: topical in acetone to abdomen of 0.5 to 2 hours old pupae; 27° C, 70% RH; mixtures of isomers. As for the experimental part:
as §1
The material in question is applied topically to the abdomen of 0.5 to 2 hours old pupae of the said species, as a solution in acetone. The pupae are held at 27° C and 70% RH, ecdysis occuring 5 to 7 days later. The degree of inhibition of adult characters is referred to an arbitrary scale, where a morphologically perfect adult is given the character 0%, and a perfect second pupae 100%.

A further assay deals with Galleria mellonella L. Kind of assay: Galleria test (eggs on impregnated filter paper, prevention of eclosion). Particulars: amount preventing eclosion of 50% of the eggs, mixtures of isomers. As for the experimental part:
as §1
The test is performed on eggs deposited on impregnated filter paper by the mother moth. The data given in table 2, are the amount necessary for preventing eclosion of 50% of the eggs. The amount (IC-50 eclos.) is given in mg./65 cm^2.

In the case of `CC(C)=CCCC(C)=CCOCc1ccccn1` [Compound 1, 3,7-dimethyl-2,6-octadien-1-yl-(2-pyridyl)methylether], the LC50 with Culex pipiens L. came to 5 µg/mL (≈ 20.4 µM).

As to `CC(C)=CCCC(C)=CCOCc1ccncc1` [Compound 3, 3,7-dimethyl-2,6-octadien-1-yl-(4-pyridyl)methylether], the LC50 with Culex pipiens L. is over 10 µg/mL.

Turning to `CC(=CCOCc1ccccn1)CCC1OC1(C)C` (stereo not shown) [Compound 4, 6,7-epoxy-3,7-dimethyl-2-octen-1-yl-(2-pyridyl)methylether], the LC50 with Culex pipiens L. turned out to be 9 µg/mL (≈ 34.4 µM). In the case of `CCc1ccc(COCC=C(C)CCC2OC2(C)C)nc1` (stereo not shown) [Compound 6, 6,7-epoxy-3,7-dimethyl-2-octen-1-yl-(5-ethyl-2-pyridyl)methylether], in the assay with Culex pipiens L., the LC50 worked out at 0.005 µg/mL (≈ 0.0173 µM). As for `CC(C)=CCCC(C)=CCOCc1cccc(C)n1` [Compound 8, 3,7-dimethyl-2,6-octadien-1-yl-(6-methyl-2-pyridyl)methylether], the ID-50 morph. in the assay on Tenebrio molitor L worked out at 4 μg/pupa. For the same compound, the IC-50 eclos. in the assay with Galleria mellonella L. is over 10 mg/65 cm^2. Further, the LC50 with Culex pipiens L. was 10 µg/mL (≈ 38.6 µM).
